What follows are molecules tested against human opioid receptor-like (ORL-1) (Homo sapiens (Human), UniProt P41146) (assay: In vitro ORL-1 receptor [35S]GTPγS functional assay).
human opioid receptor-like (ORL-1), sequence (P41146 whole entry): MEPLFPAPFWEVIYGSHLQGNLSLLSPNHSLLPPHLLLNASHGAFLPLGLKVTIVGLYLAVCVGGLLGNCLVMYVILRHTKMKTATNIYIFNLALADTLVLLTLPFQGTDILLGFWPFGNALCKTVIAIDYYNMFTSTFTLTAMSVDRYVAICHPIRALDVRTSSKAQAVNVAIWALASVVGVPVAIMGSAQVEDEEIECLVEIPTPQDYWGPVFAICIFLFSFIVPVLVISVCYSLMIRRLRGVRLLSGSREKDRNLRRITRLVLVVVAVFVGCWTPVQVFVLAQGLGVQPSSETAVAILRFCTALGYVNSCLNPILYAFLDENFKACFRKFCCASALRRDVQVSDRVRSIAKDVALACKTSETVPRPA
Type: biochemical
With O=C(O)CN1CCC[C@@H]1c1nc2ccccc2n1[C@H]1C[C@H]2CCC[C@@H](C1)N2C1CCCCCCCCC1 [E30c(ii), 2-((R)-2-(1-((1R,3r,5S)-9-cyclodecyl-9-azabicyclo[3.3.1]nonan-3-yl)-1H-benzo[d]imidazol-2-yl)pyrrolidin-1-yl)acetic acid] the EC50 was 336 ± 27 nM.
With COCCOCCOCCN1CCC[C@H](c2nc3ccccc3n2[C@H]2C[C@H]3CCC[C@@H](C2)N3[C@H]2C[C@@H]3CCC[C@@H](C3)C2)C1 [ZA12, (1R,1′R,3r,3′R,5S,5′S)-3′-(2-((S)-1-(2-(2-(2-methoxyethoxy)ethoxy)ethyl)piperidin-3-yl)-1H-benzo[d]imidazol-1-yl)-9′-aza-3,9′-bi(bicyclo[3.3.1]nonane)] the EC50 was 390 ± 34 nM.
In the case of O=c1cc(-c2nc3ccccc3n2[C@H]2C[C@H]3CCC[C@@H](C2)N3[C@@H]2C[C@@H]3CCCC[C@@H](C3)C2)[nH]c(=O)[nH]1 [ZA71, 6-(1-((1R,3R,5S)-9-((1R,6S,8r)-bicyclo[4.3.1]decan-8-yl)-9-azabicyclo[3.3.1]nonan-3-yl)-1H-benzo[d]imidazol-2-yl)pyrimidine-2,4(1H,3H)-dione], the EC50 is reported as greater than 20000 nM.
Work on COc1cnc(-c2nc3ccccc3n2[C@H]2C[C@H]3CCC[C@@H](C2)N3[C@H]2C[C@@H]3CCC[C@@H](C3)C2)cn1 [ZA63, (1R,1′R,3r,3′R,5S,5′S)-3′-(2-(5-methoxypyrazin-2-yl)-1H-benzo[d]imidazol-1-yl)-9′-aza-3,9′-bi(bicyclo[3.3.1]nonane)] yielded an EC50 greater than 20000 nM.
Molecule COCCOCCOCCN1CCC[C@@H](c2nc3ccccc3n2[C@H]2C[C@H]3CCC[C@@H](C2)N3[C@H]2C[C@@H]3CCC[C@@H](C3)C2)C1 [ZA11, (1R,1′R,3r,3′R,5S,5′S)-3′-(2-((R)-1-(2-(2-(2-methoxyethoxy)ethoxy)ethyl)piperidin-3-yl)-1H-benzo[d]imidazol-1-yl)-9′-aza-3,9′-bi(bicyclo[3.3.1]nonane)] has an EC50 of 502 ± 99 nM.
COc1cnc(-c2nc3ccccc3n2[C@H]2C[C@H]3CCC[C@@H](C2)N3[C@@H]2C[C@@H]3CCCC[C@@H](C3)C2)cn1 [ZA42, 1-((1R,3R,5S)-9-((1R,6S,8r)-bicyclo[4.3.1]decan-8-yl)-9-azabicyclo[3.3.1]nonan-3-yl)-2-(5-methoxypyrazin-2-yl)-1H-benzo[d]imidazole] gave an EC50 greater than 20000 nM.
In the case of O=C(O)CCN1CC[C@H](c2nc3ccccc3n2[C@H]2C[C@H]3CCC[C@@H](C2)N3[C@@H]2C[C@@H]3CCCC[C@@H](C3)C2)C1 [H32d(ii), 3-((S)-3-(1-((1R,3R,5S)-9-((1R,6S,8s)-bicyclo[4.3.1]decan-8-yl)-9-azabicyclo[3.3.1]nonan-3-yl)-1H-benzo[d]imidazol-2-yl)pyrrolidin-1-yl)propanoic acid], the EC50 is reported as 160 ± 35 nM.
Molecule O=C(O)CCN1CCC(c2nc3ccccc3n2[C@H]2C[C@H]3CCC[C@@H](C2)N3[C@@H]2C[C@@H]3CCCC[C@@H](C3)C2)CC1 [ZA08, 3-(4-(1-((1R,3R,5S)-9-((1R,6S,8s)-bicyclo[4.3.1]decan-8-yl)-9-azabicyclo[3.3.1]nonan-3-yl)-1H-benzo[d]imidazol-2-yl)piperidin-1-yl)propanoic acid] has an EC50 of 253 ± 20 nM.
With O=C(O)C1CCN(Cc2nc3ccccc3n2[C@H]2C[C@H]3CCC[C@@H](C2)N3[C@H]2C[C@@H]3CCC[C@@H](C3)C2)CC1 [ZA23, 1-((1-((1R,1′R,3r,3′R,5S,5′S)-[3,9′-bi(9′-azabicyclo[3.3.1]nonan)]-3′-yl)-1H-benzo[d]imidazol-2-yl)methyl)piperidine-4-carboxylic acid] the EC50 was greater than 20000 nM.
In the case of c1ccc2c(c1)nc(-c1nnn[nH]1)n2[C@H]1C[C@H]2CCC[C@@H](C1)N2[C@@H]1C[C@@H]2CCCC[C@@H](C2)C1 [ZA39, 1-((1R,3R,5S)-9-((1R,6S,8r)-bicyclo[4.3.1]decan-8-yl)-9-azabicyclo[3.3.1]nonan-3-yl)-2-(1H-tetrazol-5-yl)-1H-benzo[d]imidazole], the EC50 is reported as greater than 20000 nM.
With O=C(O)CN1CCC(c2nc3ccccc3n2[C@H]2C[C@H]3CCC[C@@H](C2)N3[C@@H]2C[C@@H]3CCCC[C@@H](C3)C2)CC1 [ZA07, 2-(4-(1-((1R,3R,5S)-9-((1R,6S,8s)-bicyclo[4.3.1]decan-8-yl)-9-azabicyclo[3.3.1]nonan-3-yl)-1H-benzo[d]imidazol-2-yl)piperidin-1-yl)acetic acid] the EC50 was 140 ± 17 nM.

Source: patent US9090618B2, “Substituted benzimidazole-type piperidine compounds and uses thereof” (priority 2012, dated 2015)
